This note sets out measurements from PubChem BioAssay AID1963975 (Molecular Pharmacology Branch, DTP, NCI, 2024).

pIC50: −log10 of the molar value.

For the test, the system named is 624824-186-R-J2-PDC multicell spheroids, viability. Description: Anticancer human tumor 624824-186-R-J2-PDC patient-derived colon adenocarcinoma cell line growth inhibition [PI3K]. Particulars: for viability, T/C: stronger effect = lower value. An excerpt:
Combinatorial screen of targeted agents with the PI3K inhibitors inavolisib, alpelisib, duvelisib, and copanlisib in multi-cell type tumor spheroids
A high-throughput screen of multi-cell type tumor spheroids was designed to identify active combinations of targeted small molecules and PI3K pathway inhibitors. Complex spheroids include a stromal component modeled by human endothelial cells (HUVEC) and fibroblasts modeled by human mesenchymal stem cells (MSCs). The concentration ranges selected for each drug and investigational agent were based upon clinically achievable concentrations if the clinical Cmax of the agent was known.
Compounds. The drugs and investigational agents: inavolisib (NSC800729), alpelisib (NSC765974), duvelisib (NSC772469), copanlisib (NSC816437), ipatasertib (NSC767898), afuresertib (NSC778305), talazoparib (NSC767125), sapanisertib (NSC764658), selumetinib (NSC741078), tovorafenib (DAY101, NSC766906), vemurafenib (NSC761431), ravoxertinib (NSC781343), sotorasib (NSC818433), MRTX1133 (NSC 836407), abemaciclib (NSC 768073), palbociclib (NSC758247), venetoclax (NSC 766270), SY5609 (NSC837396), enzalutamide (NSC755605), and darolutamide (NSC825331), were obtained from the National Cancer Institute (NCI) Developmental Therapeutics Program Chemical Repository. The FDA-approved anticancer drug set is available from the NCI Developmental Therapeutics Program. […] The stock solutions were prepared in dimethyl sulfoxide (DMSO, Sigma-Aldrich, St. Louis, MO, cat. D2650) at 800-fold the tested concentration and stored at -70 degrees C prior to their use. All drugs and investigational agents were tested over a range starting from a high concentration at or near the clinical Cmax and decreasing in half-log increments. If the clinical Cmax for an agent had not been determined, the highest concentration tested was 10 microM.
Cell Culture. All cells were maintained in an incubator at 37 degrees C and 5% CO2 with 95% humidity. The PDC lines were cultured according to standard operating procedures established by the NCI PDMR (https://pdmr.cancer.gov/sops/default.htm). All PDCs were thawed and cultured in Matrigel-coated flasks prepared with a working solution of 1X Ham's F-12 nutrient mix, without supplementation (Invitrogen, Waltham, MA, cat. 11765054), 100 U/mL penicillin-streptomycin (Invitrogen, cat. 15140122), and 2.5% Matrigel (Corning Inc., Corning, NY, cat. 354248) for the first three passages. The 354836-022-R-J1-PDC, 475296-252-R-J1-PDC, and 997726-040-R-J2-PDC lines were cultured in 6A media, which includes advanced DMEM/F-12 (Thermo Fisher Scientific, cat. 12634028), 10 mM HEPES (Thermo Fisher Scientific, cat. 15630080), 1X GlutaMAX supplement (Thermo Fisher Scientific, cat. 35050061), 0.1 mg/mL primocin (InvivoGen, San Diego, CA, cat. ant-pm-2), 10% defined fetal bovine serum, heat inactivated (HyClone Laboratories Inc., Logan, UT, cat. SH30070.03HI), 50% L-WRN conditioned media (ATCC, cat. CRL-3276), 1.25 mM N-Acetyl-L-cysteine (Sigma-Aldrich, cat. A9165), 10 mM nicotinamide (Sigma-Aldrich, cat. N0636), 1X B-27 supplement (Thermo Fisher Scientific, cat. 17504044), 1X N-2 supplement (Thermo Fisher Scientific, cat. 17502048), and 10 microM Y-27632 dihydrochloride (Tocris Bioscience, Bristol, United Kingdom, cat. 1254). The 624824-186-R-J2-PDC line was cultured in 6C/Colon 1B media, which includes all 6A media components plus 50 ng/mL human EGF recombinant protein (Thermo Fisher Scientific, cat. PHG0311). […]

Setting [1] is: curve of first compound, second compound 0.0316 µM.
The mark [2] stands for this setting: curve of first compound, second compound 0.1 µM.
Setting [3] is: curve of first compound, second compound 0.316 µM.
[4] abbreviates: curve of first compound, second compound 1 µM.
Setting [5] is: curve of first compound, second compound 3.16 µM.
The mark [6] stands for this setting: curve of first compound, second compound 10 µM.
Where [7] appears, read: second compound 0.0316 µM, first compound 0.0316 µM.
Setting [8] is: second compound 0.0316 µM, first compound 0.1 µM.
Where [9] appears, read: second compound 0.0316 µM, first compound 0.316 µM.
[10] abbreviates: second compound 0.0316 µM, first compound 1 µM.
The mark [11] stands for this setting: second compound 0.0316 µM, first compound 3.16 µM.
Where [12] appears, read: second compound 0.0316 µM, first compound 10 µM.
Setting [13] is: second compound 0.1 µM, first compound 0.0316 µM.
The mark [14] stands for this setting: second compound 0.1 µM, first compound 0.1 µM.
The mark [15] stands for this setting: second compound 0.1 µM, first compound 0.316 µM.
Where [16] appears, read: second compound 0.1 µM, first compound 1 µM.
[17] abbreviates: second compound 0.1 µM, first compound 3.16 µM.
The mark [18] stands for this setting: second compound 0.1 µM, first compound 10 µM.
Where [19] appears, read: second compound 0.316 µM, first compound 0.0316 µM.
Setting [20] is: second compound 0.316 µM, first compound 0.1 µM.
Setting [21] is: second compound 0.316 µM, first compound 0.316 µM.
The mark [22] stands for this setting: second compound 0.316 µM, first compound 1 µM.
The mark [23] stands for this setting: second compound 0.316 µM, first compound 3.16 µM.
[24] abbreviates: second compound 0.316 µM, first compound 10 µM.
Setting [25] is: second compound 1 µM, first compound 0.0316 µM.
Setting [26] is: second compound 1 µM, first compound 0.1 µM.
The mark [27] stands for this setting: second compound 1 µM, first compound 0.316 µM.
The mark [28] stands for this setting: second compound 1 µM, first compound 1 µM.
[29] abbreviates: second compound 1 µM, first compound 3.16 µM.
The mark [30] stands for this setting: second compound 1 µM, first compound 10 µM.
The mark [31] stands for this setting: second compound 3.16 µM, first compound 0.0316 µM.
Where [32] appears, read: second compound 3.16 µM, first compound 0.1 µM.
Setting [33] is: second compound 3.16 µM, first compound 0.316 µM.
The mark [34] stands for this setting: second compound 3.16 µM, first compound 1 µM.
Setting [35] is: second compound 3.16 µM, first compound 3.16 µM.
Setting [36] is: second compound 3.16 µM, first compound 10 µM.
Where [37] appears, read: second compound 10 µM, first compound 0.0316 µM.
Setting [38] is: second compound 10 µM, first compound 0.1 µM.
Setting [39] is: second compound 10 µM, first compound 0.316 µM.
Where [40] appears, read: second compound 10 µM, first compound 1 µM.
The mark [41] stands for this setting: second compound 10 µM, first compound 3.16 µM.
[42] abbreviates: second compound 10 µM, first compound 10 µM.
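Note: spheroids exposed to agents for 7 days before viability read.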

A word on the viability, T/C: it is the ratio of treated to control. As usually defined, the pIC50 is −log10 of the IC50, conventionally taken in molar units. With `Cc1nc(NC(=O)N2CCCC2C(N)=O)sc1-c1ccnc(C(C)(C)C(F)(F)F)c1` (stereo not drawn), the viability, T/C is 83.4% [middle of 8 runs] (compound 0.1 µM) and 80.8% [middle of 8 runs] (compound 10 µM). Also, the pIC50 (compound alone, run of 06/12/2023) is less than 5.00.

For `C[C@@H](NC(=O)c1ncnc(N)c1Cl)c1ncc(C(=O)Nc2cc(C(F)(F)F)c(Cl)cn2)s1` + Cc1nc(NC(=O)N2CCCC2C(N)=O)sc1-c1ccnc(C(C)(C)C(F)(F)F)c1, the pIC50 is less than 5.00 under setting [1]; less than 5.00 under setting [2]; less than 5.00 under setting [3]; less than 5.00 under setting [4]; less than 5.00 under setting [5]; 5.93 under setting [6]. Moreover, the viability, T/C was 103% under setting [7]; 103% under setting [8]; 91.8% under setting [9]; 84.2% under setting [10]; 73.2% under setting [11]; 82.4% under setting [12]. The viability, T/C was 80.8% under setting [13]; 84.2% under setting [14]; 85.7% under setting [15]; 76.1% under setting [16]; 84.2% under setting [17]; 85.5% under setting [18]. For the same compound, the viability, T/C is 106% under setting [19]; 99.8% under setting [20]; 87.7% under setting [21]; 63.5% under setting [22]; 76.2% under setting [23]; 81.1% under setting [24]. Besides, the viability, T/C is 101% under setting [25]; 96.1% under setting [26]; 102% under setting [27]; 70.7% under setting [28]; 68.3% under setting [29]; 71.5% under setting [30]. For the same compound, the viability, T/C is, setting by setting: under setting [31], 87.4%; under setting [32], 92.6%; under setting [33], 88.8%; under setting [34], 70.7%; under setting [35], 58.1%; under setting [36], 49.7%. The viability, T/C was 78% under setting [37]; 80.4% under setting [38]; 63.4% under setting [39]; 54.7% under setting [40]; 38% under setting [41]; 40.1% under setting [42].

In the case of `CC(Cn1ccc(-c2ccc(C#N)c(Cl)c2)n1)NC(=O)c1cc(C(C)O)[nH]n1` (stereo not drawn), the viability, T/C reads like this: (compound 0.0316 µM) 91.5% [middle of 4 runs]; (compound 0.316 µM) 89.7% [middle of 4 runs]; (compound 1 µM) 92.9% [middle of 4 runs]; (compound 3.16 µM) 101% [middle of 4 runs]; (compound 10 µM) 106% [middle of 4 runs]. For the same compound, the pIC50 (curve of compound) is less than 5.00.

On to `Cn1ncc(Cl)c1-c1cc(C(=O)NC(CN)Cc2cccc(F)c2)sc1Cl` (stereo not drawn) + Cc1nc(NC(=O)N2CCCC2C(N)=O)sc1-c1ccnc(C(C)(C)C(F)(F)F)c1, for which the pIC50 was less than 5.00 under setting [1]; 5.01 under setting [2]; 5.07 under setting [3]; 5.10 under setting [4]; 5.35 under setting [5]; 5.52 under setting [6]. Besides, the viability, T/C was 58.2% under setting [7]; 80.2% under setting [8]; 77.9% under setting [9]; 82.1% under setting [10]; 62.6% under setting [11]; 56.1% under setting [12]. Also, the viability, T/C is, setting by setting: under setting [13], 78.9%; under setting [14], 84.3%; under setting [15], 70.5%; under setting [16], 75.2%; under setting [17], 64.9%; under setting [18], 49.2%. In addition, the viability, T/C under setting [19] is 88.5%; the viability, T/C under setting [20] is 79%; the viability, T/C under setting [21] was 87%; the viability, T/C under setting [22] is 80%; the viability, T/C under setting [23] is 63.5%; the viability, T/C under setting [24] was 47.8%. The viability, T/C under setting [25] was 70.6%; the viability, T/C under setting [26] is 77.8%; the viability, T/C under setting [27] is 86.6%; the viability, T/C under setting [28] was 74%; the viability, T/C under setting [29] was 63.5%; the viability, T/C under setting [30] was 46.8%. Besides, the viability, T/C runs as follows: under setting [31], 84.1%; under setting [32], 84.2%; under setting [33], 71.1%; under setting [34], 62.8%; under setting [35], 62.6%; under setting [36], 34.7%. Further, the viability, T/C runs as follows: under setting [37], 80.7%; under setting [38], 73.3%; under setting [39], 64%; under setting [40], 66.8%; under setting [41], 49.1%; under setting [42], 30.9%.
